Measurements: ChEMBL document CHEMBL5131445, “Optimization of a novel piperazinone series as potent selective peripheral covalent BTK inhibitors” (Bioorg Med Chem Lett, 2022)

Assays:
[1] = target: T1, Tyrosine-protein kinase BTK (Homo sapiens, UniProt Q06187); assay: Inhibition of BTK (unknown origin) at 1 uM by KINOMEscan assay relative to control
[2] = target: Cytochrome P450 2C9 (Homo sapiens, UniProt P11712); assay: Inhibition of human CYP2C9; format: ADME
[3] = target: T2, Cytochrome P450 2C8 (Homo sapiens, UniProt P10632); assay: Inhibition of human CYP2C8; format: ADME
T2 sequence (P10632 whole entry): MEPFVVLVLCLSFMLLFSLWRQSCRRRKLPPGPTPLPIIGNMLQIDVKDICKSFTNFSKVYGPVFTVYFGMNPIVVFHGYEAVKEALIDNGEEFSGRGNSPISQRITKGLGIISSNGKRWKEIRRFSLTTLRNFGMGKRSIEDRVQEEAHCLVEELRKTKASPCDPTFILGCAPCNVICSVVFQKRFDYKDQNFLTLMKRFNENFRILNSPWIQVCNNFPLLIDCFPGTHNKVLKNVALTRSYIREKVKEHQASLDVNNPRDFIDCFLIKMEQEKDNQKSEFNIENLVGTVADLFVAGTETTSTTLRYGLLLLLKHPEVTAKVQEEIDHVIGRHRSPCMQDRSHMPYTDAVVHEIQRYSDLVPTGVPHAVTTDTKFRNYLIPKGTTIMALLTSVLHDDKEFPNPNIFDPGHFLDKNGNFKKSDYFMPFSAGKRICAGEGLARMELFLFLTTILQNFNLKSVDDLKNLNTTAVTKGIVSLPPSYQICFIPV

[4] = target: T1, Tyrosine-protein kinase BTK; assay: Inhibition of BTK (unknown origin)
[5] = target: Voltage-gated inwardly rectifying potassium channel KCNH2 (Homo sapiens, UniProt Q12809); assay: Inhibition of hERG; format: toxicity
[6] = target: T3, Cytochrome P450 2B6 (Homo sapiens, UniProt P20813); assay: Inhibition of human CYP2B6; format: ADME
T3 sequence (P20813 whole entry): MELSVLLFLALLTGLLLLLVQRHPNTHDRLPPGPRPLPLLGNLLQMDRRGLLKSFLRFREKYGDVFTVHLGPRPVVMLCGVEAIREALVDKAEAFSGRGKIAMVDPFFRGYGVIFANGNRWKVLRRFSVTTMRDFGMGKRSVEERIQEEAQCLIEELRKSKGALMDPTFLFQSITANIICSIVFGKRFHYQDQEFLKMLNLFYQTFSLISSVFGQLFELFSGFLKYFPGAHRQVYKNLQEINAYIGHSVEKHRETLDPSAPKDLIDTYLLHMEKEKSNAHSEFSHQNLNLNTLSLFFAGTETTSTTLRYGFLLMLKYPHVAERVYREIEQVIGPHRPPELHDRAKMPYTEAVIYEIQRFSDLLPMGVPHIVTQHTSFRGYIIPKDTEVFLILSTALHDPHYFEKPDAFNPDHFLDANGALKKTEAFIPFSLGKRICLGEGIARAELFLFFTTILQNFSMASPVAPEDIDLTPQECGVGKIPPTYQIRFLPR

[7] = target: T1, Tyrosine-protein kinase BTK; assay: Inhibition of BTK in human Ramos cells assessed as target occupancy; format: cell-based
[8] = Clearance in iv dosed Sprague-Dawley rat; format: ADME, organism-based; conditions: in vivo
[9] = target: T4, Tyrosine-protein kinase JAK3 (Homo sapiens, UniProt P52333); assay: Binding affinity to JAK3 (unknown origin) assessed as dissociation constant by KINOMEscan analysis
T4 sequence (P52333 whole entry): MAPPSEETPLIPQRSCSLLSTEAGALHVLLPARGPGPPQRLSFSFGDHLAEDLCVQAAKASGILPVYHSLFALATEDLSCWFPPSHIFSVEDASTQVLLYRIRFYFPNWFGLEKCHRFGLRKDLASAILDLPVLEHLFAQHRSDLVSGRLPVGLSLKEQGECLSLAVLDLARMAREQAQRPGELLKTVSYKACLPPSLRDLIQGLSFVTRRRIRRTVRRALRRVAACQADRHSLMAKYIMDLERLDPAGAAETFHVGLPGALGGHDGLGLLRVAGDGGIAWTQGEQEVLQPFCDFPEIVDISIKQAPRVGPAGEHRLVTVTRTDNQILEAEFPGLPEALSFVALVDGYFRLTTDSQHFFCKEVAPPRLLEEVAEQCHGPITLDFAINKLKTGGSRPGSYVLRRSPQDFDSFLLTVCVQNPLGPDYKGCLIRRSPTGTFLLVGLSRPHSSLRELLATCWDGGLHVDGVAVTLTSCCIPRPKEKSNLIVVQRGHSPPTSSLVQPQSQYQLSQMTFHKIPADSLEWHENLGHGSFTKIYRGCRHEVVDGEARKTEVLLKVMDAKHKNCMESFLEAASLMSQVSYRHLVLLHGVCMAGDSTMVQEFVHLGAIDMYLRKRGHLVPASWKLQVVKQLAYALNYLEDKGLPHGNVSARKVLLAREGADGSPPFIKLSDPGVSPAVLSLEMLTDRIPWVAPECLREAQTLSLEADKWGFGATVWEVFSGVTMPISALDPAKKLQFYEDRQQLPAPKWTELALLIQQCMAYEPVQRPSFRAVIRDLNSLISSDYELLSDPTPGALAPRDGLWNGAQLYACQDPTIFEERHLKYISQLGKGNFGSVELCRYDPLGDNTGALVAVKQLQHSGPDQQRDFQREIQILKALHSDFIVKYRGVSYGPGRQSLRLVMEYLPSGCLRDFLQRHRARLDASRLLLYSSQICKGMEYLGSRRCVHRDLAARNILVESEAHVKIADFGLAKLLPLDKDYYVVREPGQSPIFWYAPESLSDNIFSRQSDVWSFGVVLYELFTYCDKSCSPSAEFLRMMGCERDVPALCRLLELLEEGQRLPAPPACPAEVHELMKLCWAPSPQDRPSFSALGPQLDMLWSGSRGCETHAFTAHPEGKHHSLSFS

[10] = Plasma protein binding in rat assessed as unbound fraction by rapid equilibrium dialysis method; format: ADME, cell-free
[11] = Inhibition of CD69 expression on CD19 positive B cells in anti-IgD stimulated human whole blood; format: functional, tissue-based; conditions: CD19 positive B cell
[12] = Volume of distribution at steady state in iv dosed Sprague-Dawley rat; format: ADME, organism-based; conditions: in vivo, read-out: Vdss
[13] = target: Receptor tyrosine-protein kinase erbB-4 (Homo sapiens, UniProt Q15303); assay: Binding affinity to ERBB4 (unknown origin) assessed as dissociation constant by KINOMEscan analysis
[14] = target: Cytochrome P450 2D6 (Homo sapiens, UniProt P10635); assay: Inhibition of human CYP2D6; format: ADME
[15] = Metabolic stability in human liver microsomes assessed as intrinsic clearance; format: ADME, Microsome; conditions: read-out: CLH

T1 sequence (Q06187 whole entry): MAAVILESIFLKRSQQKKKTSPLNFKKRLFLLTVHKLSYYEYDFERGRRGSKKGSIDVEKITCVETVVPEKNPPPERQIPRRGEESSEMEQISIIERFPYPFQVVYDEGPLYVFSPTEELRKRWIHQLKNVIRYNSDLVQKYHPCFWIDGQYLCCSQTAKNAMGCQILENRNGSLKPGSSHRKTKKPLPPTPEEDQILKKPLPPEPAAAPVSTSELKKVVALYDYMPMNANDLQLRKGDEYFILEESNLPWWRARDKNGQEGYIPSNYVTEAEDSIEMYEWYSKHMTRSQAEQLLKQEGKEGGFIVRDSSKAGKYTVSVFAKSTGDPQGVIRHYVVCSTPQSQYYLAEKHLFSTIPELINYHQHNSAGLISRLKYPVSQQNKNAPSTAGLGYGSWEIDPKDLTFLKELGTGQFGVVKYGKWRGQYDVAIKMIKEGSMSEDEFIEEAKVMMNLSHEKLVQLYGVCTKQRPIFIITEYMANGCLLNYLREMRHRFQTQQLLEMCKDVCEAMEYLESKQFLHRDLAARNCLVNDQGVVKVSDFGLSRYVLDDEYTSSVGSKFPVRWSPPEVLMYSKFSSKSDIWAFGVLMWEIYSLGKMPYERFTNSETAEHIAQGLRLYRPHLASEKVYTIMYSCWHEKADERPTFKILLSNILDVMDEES
Sequence of Cytochrome P450 2D6 (P10635 whole entry): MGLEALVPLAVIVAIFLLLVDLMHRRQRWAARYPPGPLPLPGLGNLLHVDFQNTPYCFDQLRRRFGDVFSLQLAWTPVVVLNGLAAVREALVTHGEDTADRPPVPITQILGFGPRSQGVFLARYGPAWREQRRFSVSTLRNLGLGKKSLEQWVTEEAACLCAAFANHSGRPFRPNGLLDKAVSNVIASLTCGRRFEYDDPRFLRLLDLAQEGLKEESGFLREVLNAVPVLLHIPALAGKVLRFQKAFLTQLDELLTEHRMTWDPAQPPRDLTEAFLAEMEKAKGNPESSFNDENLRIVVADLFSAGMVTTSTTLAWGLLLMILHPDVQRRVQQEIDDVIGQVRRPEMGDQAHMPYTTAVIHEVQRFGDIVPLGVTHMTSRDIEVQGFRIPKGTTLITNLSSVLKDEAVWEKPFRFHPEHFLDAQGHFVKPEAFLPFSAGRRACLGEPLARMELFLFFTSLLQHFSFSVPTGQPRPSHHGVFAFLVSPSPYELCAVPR
Sequence of Voltage-gated inwardly rectifying potassium channel KCNH2 (Q12809 whole entry): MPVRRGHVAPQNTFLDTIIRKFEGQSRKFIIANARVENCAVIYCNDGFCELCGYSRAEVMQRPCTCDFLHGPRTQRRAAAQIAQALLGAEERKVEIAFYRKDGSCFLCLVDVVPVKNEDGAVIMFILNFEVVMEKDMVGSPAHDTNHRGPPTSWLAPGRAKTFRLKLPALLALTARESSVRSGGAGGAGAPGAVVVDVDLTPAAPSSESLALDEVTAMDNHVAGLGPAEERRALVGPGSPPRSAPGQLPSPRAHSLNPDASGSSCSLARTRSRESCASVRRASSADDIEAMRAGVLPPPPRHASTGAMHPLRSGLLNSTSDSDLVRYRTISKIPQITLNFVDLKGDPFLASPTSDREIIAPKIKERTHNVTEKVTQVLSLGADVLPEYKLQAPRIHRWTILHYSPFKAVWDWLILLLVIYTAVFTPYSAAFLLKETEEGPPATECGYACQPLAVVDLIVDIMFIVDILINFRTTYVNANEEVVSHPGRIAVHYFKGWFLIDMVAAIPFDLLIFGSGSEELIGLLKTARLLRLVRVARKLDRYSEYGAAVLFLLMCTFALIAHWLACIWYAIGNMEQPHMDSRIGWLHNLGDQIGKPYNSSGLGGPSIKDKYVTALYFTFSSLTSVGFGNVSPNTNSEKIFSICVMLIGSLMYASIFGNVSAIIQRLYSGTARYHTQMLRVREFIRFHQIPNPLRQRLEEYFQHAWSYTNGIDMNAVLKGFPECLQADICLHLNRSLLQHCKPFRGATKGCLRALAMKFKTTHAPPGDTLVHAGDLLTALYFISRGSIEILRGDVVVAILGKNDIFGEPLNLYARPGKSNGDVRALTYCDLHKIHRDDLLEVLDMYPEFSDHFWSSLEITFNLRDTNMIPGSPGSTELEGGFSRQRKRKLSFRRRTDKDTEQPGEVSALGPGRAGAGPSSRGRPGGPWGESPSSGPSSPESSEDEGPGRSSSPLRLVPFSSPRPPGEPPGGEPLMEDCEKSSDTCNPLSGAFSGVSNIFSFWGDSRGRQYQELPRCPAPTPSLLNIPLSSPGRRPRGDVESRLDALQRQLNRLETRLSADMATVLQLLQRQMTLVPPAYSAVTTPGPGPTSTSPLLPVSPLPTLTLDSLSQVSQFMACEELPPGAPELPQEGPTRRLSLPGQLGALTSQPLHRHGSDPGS
Sequence of Cytochrome P450 2C9 (P11712 whole entry): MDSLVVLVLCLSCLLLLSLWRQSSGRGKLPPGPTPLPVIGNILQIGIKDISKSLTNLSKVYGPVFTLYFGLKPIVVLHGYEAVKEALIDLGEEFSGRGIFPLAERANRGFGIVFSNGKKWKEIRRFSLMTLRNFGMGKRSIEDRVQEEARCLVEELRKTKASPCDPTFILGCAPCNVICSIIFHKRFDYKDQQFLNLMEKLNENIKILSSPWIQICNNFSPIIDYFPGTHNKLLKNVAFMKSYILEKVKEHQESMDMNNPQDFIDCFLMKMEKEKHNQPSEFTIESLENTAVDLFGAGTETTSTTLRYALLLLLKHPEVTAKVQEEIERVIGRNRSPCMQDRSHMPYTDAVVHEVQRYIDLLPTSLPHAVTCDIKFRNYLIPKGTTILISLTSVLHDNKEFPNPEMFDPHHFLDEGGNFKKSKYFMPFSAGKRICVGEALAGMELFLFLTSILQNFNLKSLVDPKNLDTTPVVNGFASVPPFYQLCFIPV
Sequence of Receptor tyrosine-protein kinase erbB-4 (Q15303 whole entry): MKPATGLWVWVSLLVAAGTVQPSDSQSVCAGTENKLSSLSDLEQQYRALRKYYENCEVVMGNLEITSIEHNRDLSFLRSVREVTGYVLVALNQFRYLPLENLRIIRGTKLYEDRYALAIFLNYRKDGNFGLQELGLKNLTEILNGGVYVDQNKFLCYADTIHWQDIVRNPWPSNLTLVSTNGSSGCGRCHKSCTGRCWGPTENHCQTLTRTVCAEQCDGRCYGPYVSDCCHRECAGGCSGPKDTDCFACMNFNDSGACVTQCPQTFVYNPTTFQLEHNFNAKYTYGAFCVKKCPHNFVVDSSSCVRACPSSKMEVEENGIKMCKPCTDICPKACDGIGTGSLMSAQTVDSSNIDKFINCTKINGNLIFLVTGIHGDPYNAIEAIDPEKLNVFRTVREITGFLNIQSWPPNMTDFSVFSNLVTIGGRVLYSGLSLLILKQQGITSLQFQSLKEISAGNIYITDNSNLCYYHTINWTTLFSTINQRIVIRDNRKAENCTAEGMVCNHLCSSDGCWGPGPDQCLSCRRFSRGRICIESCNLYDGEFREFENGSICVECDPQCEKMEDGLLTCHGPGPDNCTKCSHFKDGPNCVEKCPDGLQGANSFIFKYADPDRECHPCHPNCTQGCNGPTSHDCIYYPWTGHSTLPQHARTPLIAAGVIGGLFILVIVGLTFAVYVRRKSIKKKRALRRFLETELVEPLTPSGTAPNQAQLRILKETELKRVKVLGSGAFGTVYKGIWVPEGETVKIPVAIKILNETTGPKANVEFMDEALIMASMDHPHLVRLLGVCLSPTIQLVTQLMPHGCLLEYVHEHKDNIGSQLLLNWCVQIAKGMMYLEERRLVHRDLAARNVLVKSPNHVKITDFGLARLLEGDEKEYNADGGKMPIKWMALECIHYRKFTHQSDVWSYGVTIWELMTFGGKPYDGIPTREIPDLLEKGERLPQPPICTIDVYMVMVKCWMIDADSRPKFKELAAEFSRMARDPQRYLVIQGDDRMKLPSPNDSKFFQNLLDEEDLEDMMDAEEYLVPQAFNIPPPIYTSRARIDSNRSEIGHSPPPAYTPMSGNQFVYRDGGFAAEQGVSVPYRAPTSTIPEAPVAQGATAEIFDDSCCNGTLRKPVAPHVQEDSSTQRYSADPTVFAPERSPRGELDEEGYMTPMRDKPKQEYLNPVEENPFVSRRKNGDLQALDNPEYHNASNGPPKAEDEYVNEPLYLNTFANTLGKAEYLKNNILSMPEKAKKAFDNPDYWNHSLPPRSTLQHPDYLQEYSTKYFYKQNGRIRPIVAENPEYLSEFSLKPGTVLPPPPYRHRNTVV

- inhibition [1]: > 90%
- IC50 [2]: > 10000 nM
- IC50 [3]: > 10000 nM
- IC50 [4]: 0.22 nM
- IC50 [6]: > 10000 nM
- IC50 [7]: 3.1 nM
- clearance [8]: 126 mL/min/kg
- Kd [9]: 2900 nM
- fraction unbound [10]: 0.169
- IC50 [11]: 30 nM
- Vd [12]: 126 L/kg
- Kd [13]: 890 nM
- IC50 [14]: > 10000 nM
- CLint scaled [15]: 66 mL/min/kg
SMILES: C=CC(=O)N(C)CCOc1c(N)ncnc1-c1ccc(CN2CCN(CC(C)C)CC2=O)c(C)c1
- IC50 [5]: > 60000 nM
